Read-outs that look alike come from different tables or passages of the source.
Experiments:
LXR α LBD protein [1] = molecular target: T1, LXR α LBD protein (Homo sapiens (Human), UniProt Q13133); assay: Human LXRα coactivator recruitment FRET assay, agonist mode; type: biochemical
Description: Two μL of the DMSO solutions were transferred to the plate and 38 μL of 10 nM LXRα-LBD or LXRβ-LBD (2×) were added immediately to the wells. The plate was shaken for 5 min at rt on an orbital micro shaker (DPC MicroMix® 5), after which 40 μL of 200 nM fluorescein-SRC2-3 peptide and 20 nM Terbium-anti-GST-antibody (Cat# PV3550, Life Technologies, Grand Island, N.Y.) solution (4×) were added to all. The plate was sealed and shaken for 2 min at rt, and incubated at rt for 2 h without agitation. […] The delay and window times were set at 100 and 200 microseconds, respectively. […] The percent control vs. compound concentration data were fit into a four-parameter model, and EC50 values were calculated from the fit as the concentrations corresponding to the inflection points on the concentration-response curves.

[2] = molecular target: Gal4 DNA binding domain fused to the LBD of LXRα in HEK293 cells (Homo sapiens (Human), UniProt Q13133); assay: LXR luciferase transcriptional reporter gene assay, agonist mode, LXRα; type: cell-based; details: for EC50: read-out: Cell LXRα EC50
[3] = molecular target: Gal4 DNA binding domain fused to the LBD of LXRβ in HEK293 cells (Homo sapiens (Human), UniProt P55055); assay: cell-based
LXR β LBD protein = LXR β LBD protein (Homo sapiens (Human), UniProt P55055); assay: biochemical; type: binding; details: read-out: LXRβ Binding Ki
LXR α LBD protein [4] = molecular target: T1, LXR α LBD protein; assay: LXR α radioligand binding assay (SPA, competition with [3H]TO901317); details: read-out: LXRα Binding Ki
[5] = Biological Test Example 3, agonist mode
[6] = Biological Test Example 2, agonist mode

Chain of LXR β LBD protein (P55055 222-460 limits assumed): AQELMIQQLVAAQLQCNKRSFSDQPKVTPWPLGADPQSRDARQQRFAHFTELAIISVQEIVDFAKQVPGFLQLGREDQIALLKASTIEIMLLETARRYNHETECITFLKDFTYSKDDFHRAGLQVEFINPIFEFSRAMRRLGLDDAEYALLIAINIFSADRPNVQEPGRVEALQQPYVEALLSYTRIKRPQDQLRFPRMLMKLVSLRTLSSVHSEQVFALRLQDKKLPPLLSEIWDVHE
Chain of Gal4 DNA binding domain fused to the LBD of LXRβ in HEK293 cells (P55055 222-460 limits assumed): as above
T1 sequence (Q13133 209-447): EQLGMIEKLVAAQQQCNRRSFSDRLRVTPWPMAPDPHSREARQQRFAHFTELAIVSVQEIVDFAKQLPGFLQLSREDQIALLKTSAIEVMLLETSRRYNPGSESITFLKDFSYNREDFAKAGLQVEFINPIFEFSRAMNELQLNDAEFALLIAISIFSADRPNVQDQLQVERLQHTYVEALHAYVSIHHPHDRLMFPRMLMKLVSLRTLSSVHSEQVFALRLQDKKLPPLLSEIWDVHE
Chain of Gal4 DNA binding domain fused to the LBD of LXRα in HEK293 cells (Q13133 209-447): as above

CS(=O)(=O)c1cccc(N2CCN(C[C@H]3CC[C@@H](C(F)F)CC3)[C@H](c3ccccc3)C2)c1 (single isomer, unassigned) [48-16]
EC50 (LXR α LBD protein [1]; agonist mode): 2.45 µM | FRET LXRα efficacy (LXR α LBD protein [1]; agonist mode): 17% | Cell LXRα efficacy [2]: 2437 (10) % | EC50 [2]: 2.44 µM

CS(=O)(=O)c1cccc(N2CCN(C[C@H]3CC[C@H](C(F)F)CC3)[C@H](c3ccccc3)C2)c1 (single isomer, unassigned) [48-18]
EC50 (LXR α LBD protein [1]; agonist mode): > 50 µM | Cell LXRα efficacy [2]: 18796 (7) % | EC50 [2]: 18.8 µM

CS(=O)(=O)c1cccc(N2CCN(CC3CCN(CC(F)(F)F)CC3)[C@H](c3ccccc3)C2)c1 (single isomer, unassigned) [48-51]
EC50 (LXR α LBD protein [1]; [5]): 9.4 µM | FRET LXRα efficacy (LXR α LBD protein [1]; [5]): 37% | EC50 [2, 6]: > 20 µM

COC(=O)[C@@H]1CN(c2cccc(S(C)(=O)=O)c2)CCN1C(=O)OC(C)(C)C [1-4, 1-(tert-butyl) 2-methyl (S)-4-(3-(methylsulfonyl)phenyl)piperazine-1,2-dicarboxylate]
EC50 (LXR α LBD protein [1]; agonist mode): 13.5 µM | FRET LXRα efficacy (LXR α LBD protein [1]; agonist mode): 67% | Cell LXRα efficacy [2]: 14195 (49) % | EC50 ([2]; agonist mode): 14.2 µM

CC(C)(C)OC(=O)N1CCN(c2cccc(S(C)(=O)=O)c2)C[C@@H]1c1ccccc1 [1-6, tert-butyl (S)-4-(3-(methylsulfonyl)phenyl)-2-phenylpiperazine-1-carboxylate]
EC50 (LXR α LBD protein [1]; agonist mode): 8.39 µM | FRET LXRα efficacy (LXR α LBD protein [1]; agonist mode): 14% | EC50 ([2]; agonist mode): > 20 µM

CC(C)(C)OC(=O)N1CCN(c2cccc(S(C)(=O)=O)c2)CC1c1ccc(Br)cc1 (centres unmarked) [1-12, tert-butyl 2-(4-bromophenyl)-4-(3-(methylsulfonyl)phenyl)piperazine-1-carboxylate]
FRET LXRα efficacy (LXR α LBD protein [1]; agonist mode): 46%

COC(=O)c1ccc(N2CCN(C(=O)OC(C)(C)C)C(c3ccccc3)C2)cc1S(C)(=O)=O (centres unmarked) [2-3, tert-butyl 4-(4-(methoxycarbonyl)-3-(methylsulfonyl)phenyl)-2-phenylpiperazine-1-carboxylate]
EC50 (LXR α LBD protein [1]; agonist mode): 34.9 µM | FRET LXRα efficacy (LXR α LBD protein [1]; agonist mode): 102% | EC50 ([2]; agonist mode): > 20 µM

CC(C)[C@@H]1CN(c2ccc(C(N)=O)c(S(C)(=O)=O)c2)CCN1C(=O)OC(C)(C)C [4-1, tert-butyl (R)-4-(4-carbamoyl-3-(methylsulfonyl)phenyl)-2-isopropylpiperazine-1-carboxylate]
EC50 (LXR α LBD protein [1]; agonist mode): 14.5 µM | FRET LXRα efficacy (LXR α LBD protein [1]; agonist mode): 68% | Cell LXRα efficacy [2]: 15676 (21) % | EC50 [2]: 15.7 µM

CC(C)COC(=O)N1CCN(c2cccc(S(C)(=O)=O)c2)CC1c1ccccc1 (centres unmarked) [5-5, isobutyl 4-(3-(methylsulfonyl)phenyl)-2-phenylpiperazine-1-carboxylate]
EC50 (LXR α LBD protein [1]; agonist mode): 2.5 µM | FRET LXRα efficacy (LXR α LBD protein [1]; agonist mode): 33% | Cell LXRα efficacy [2]: 3049 (6) % | EC50 ([2]; agonist mode): 3.05 µM

CC(C)OC(=O)N1CCN(c2cccc(S(C)(=O)=O)c2)CC1c1ccccc1 (centres unmarked) [5-8, isopropyl 4-(3-(methylsulfonyl)phenyl)-2-phenylpiperazine-1-carboxylate]
EC50 (LXR α LBD protein [1]; agonist mode): 19.8 µM | FRET LXRα efficacy (LXR α LBD protein [1]; agonist mode): 41% | EC50 ([2]; agonist mode): > 20 µM

Cc1nc(C(F)(F)F)ccc1CN1CCN(c2cccc(S(C)(=O)=O)c2)CC1c1ccccc1 (centres unmarked) [46-47, 1-((2-methyl-6-(trifluoromethyl)pyridin-3-yl)methyl)-4-(3-(methylsulfonyl)phenyl)-2-phenylpiperazine]
FRET LXRα efficacy (LXR α LBD protein [1]; agonist mode): 51%

Cc1cc(CN2CCN(c3cccc(S(C)(=O)=O)c3)CC2c2ccccc2)cnc1C(F)(F)F (centres unmarked) [46-48, 1-((5-methyl-6-(trifluoromethyl)pyridin-3-yl)methyl)-4-(3-(methylsulfonyl)phenyl)-2-phenylpiperazine]
FRET LXRα efficacy (LXR α LBD protein [1]; agonist mode): 47%

COC(=O)c1ccc(N2CCN(Cc3ccc(C(F)(F)F)nc3)C(c3ccccc3)C2)cc1S(C)(=O)=O (centres unmarked) [46-59, methyl 2-(methylsulfonyl)-4-(3-phenyl-4-((6-(trifluoromethyl)pyridin-3-yl)methyl)piperazin-1-yl)benzoate]
FRET LXRα efficacy (LXR α LBD protein [1]; agonist mode): 109%

CC(C)[C@@H]1CN(c2ccc(F)c(S(C)(=O)=O)c2)CCN1c1ncc(O)c(C(F)(F)F)n1 [Cpd No 30-1, (R)-2-(4-(4-fluoro-3-(methylsulfonyl)phenyl)-2-isopropylpiperazin-1-yl)-4-(trifluoromethyl)pyrimidin-5-ol]
Cell LXRα efficacy [2]: 3121 (100) % | EC50 [2]: 3.12 µM | Cell LXRβ efficacy [3]: 729 (98) % | EC50 [3]: 0.729 µM | Ki (LXR β LBD protein): 0.024 µM | Ki (LXR α LBD protein [4]): 0.169 µM

CC(C)[C@@H]1CN(c2ccc(F)c(S(C)(=O)=O)c2)CCN1c1ncc(C(F)(F)F)c(C(C)(C)O)n1 [Cpd No 39-1, (R)-2-(2-(4-(4-fluoro-3-(methylsulfonyl)phenyl)-2-isopropylpiperazin-1-yl)-5-(trifluoromethyl)pyrimidin-4-yl)propan-2-ol]
Cell LXRα efficacy [2]: 327 (96) % | EC50 [2]: 0.327 µM | EC50 [3]: 0.086 µM | Cell LXRβ efficacy ([3]; agonist mode): 86 (62) % | Ki (LXR β LBD protein): 0.002 µM | Ki (LXR α LBD protein [4]): 0.053 µM

CC(C)[C@@H]1CN(c2ccc(F)c(S(C)(=O)=O)c2)CCN1c1ncc(C(O)C(F)(F)F)cn1 (stereo partly drawn) [Cpd No 41-1, 2,2,2-trifluoro-1-(2-((R)-4-(4-fluoro-3-(methylsulfonyl)phenyl)-2-isopropylpiperazin-1-yl)pyrimidin-5-yl)ethan-1-ol]
Cell LXRα efficacy [2]: 3334 (36) % | EC50 [2]: 3.33 µM | Cell LXRβ efficacy [3]: 305 (19) % | EC50 [3]: 0.305 µM | Ki (LXR β LBD protein): 0.092 µM | Ki (LXR α LBD protein [4]): 1.11 µM

COC(c1cnc(N2CCN(c3ccc(F)c(S(C)(=O)=O)c3)C[C@H]2C(C)C)nc1)C(F)(F)F (stereo partly drawn) [Cpd No 42-1, 2-((R)-4-(4-fluoro-3-(methylsulfonyl)phenyl)-2-isopropylpiperazin-1-yl)-5-(2,2,2-trifluoro-1-methoxyethyl)pyrimidine]
Cell LXRα efficacy [2]: 763 (48) % | EC50 [2]: 0.763 µM | Cell LXRβ efficacy [3]: 124 (20) % | EC50 [3]: 0.124 µM | Ki (LXR β LBD protein): 0.033 µM | Ki (LXR α LBD protein [4]): 0.366 µM

CC(C)[C@@H]1CN(c2ccc(F)c(S(C)(=O)=O)c2)CCN1c1ccnc(OC(F)F)c1 [Cpd No 44-1, (R)-1-(2-(difluoromethoxy)pyridin-4-yl)-4-(4-fluoro-3-(methylsulfonyl)phenyl)-2-isopropylpiperazine]
Cell LXRα efficacy [2]: 258 (99) % | EC50 [2]: 0.258 µM | Cell LXRβ efficacy [3]: 70 (83) % | EC50 [3]: 0.07 µM | Ki (LXR β LBD protein): 0.007 µM | Ki (LXR α LBD protein [4]): 0.045 µM

CC(C)[C@H]1CN(c2ccc(CO)c(S(C)(=O)=O)c2)CCN1CC1CCC(O)(C(F)(F)F)CC1 (stereo partly drawn) [Cpd No 48-38, (S)-4-((4-(4-(hydroxymethyl)-3-(methylsulfonyl)phenyl)-2-isopropylpiperazin-1-yl)methyl)-1-(trifluoromethyl)cyclohexan-1-ol]
Cell LXRα efficacy [2]: 106 (86) % | EC50 [2]: 0.106 µM | EC50 [3]: 0.03 µM | Cell LXRβ efficacy ([3]; agonist mode): 30 (81) % | Ki (LXR β LBD protein): 0.027 µM | Ki (LXR α LBD protein [4]): 0.244 µM

CC(C)[C@H]1CN(c2ccc(CO)c(S(C)(=O)=O)c2)CCN1C[C@H]1CC[C@@H](C(F)(F)F)OC1 [Cpd No 49-1, (4-((S)-3-isopropyl-4-(((3R,6S)-6-(trifluoromethyl)tetrahydro-2H-pyran-3-yl)methyl)piperazin-1-yl)-2-(methylsulfonyl)phenyl)methanol]
Cell LXRα efficacy [2]: 195 (64) % | EC50 [2]: 0.195 µM | Cell LXRβ efficacy [3]: 110 (94) % | EC50 [3]: 0.11 µM | Ki (LXR β LBD protein): 0.037 µM | Ki (LXR α LBD protein [4]): 0.356 µM

CC(C)[C@H]1CN(c2ccc(CO)c(S(C)(=O)=O)c2)CCN1C[C@@H]1CC[C@@H](C(F)(F)F)OC1 [Cpd No 49-3, (4-((S)-3-isopropyl-4-(((3S,6S)-6-(trifluoromethyl)tetrahydro-2H-pyran-3-yl)methyl)piperazin-1-yl)-2-(methylsulfonyl)phenyl)methanol]
Cell LXRα efficacy [2]: 178 (75) % | EC50 [2]: 0.178 µM | Cell LXRβ efficacy [3]: 58 (78) % | EC50 [3]: 0.058 µM | Ki (LXR β LBD protein): 0.017 µM | Ki (LXR α LBD protein [4]): 0.166 µM

CC(C)[C@H]1CN(c2ccc(CO)c(S(C)(=O)=O)c2)CCN1C[C@@H]1CC[C@H](C(F)(F)F)OC1 [Cpd No 49-4, (4-((S)-3-isopropyl-4-(((3S,6R)-6-(trifluoromethyl)tetrahydro-2H-pyran-3-yl)methyl)piperazin-1-yl)-2-(methylsulfonyl)phenyl)methanol]
Cell LXRα efficacy [2]: 27 (80) % | EC50 [2]: 0.027 µM | Cell LXRβ efficacy [3]: 20 (101) % | EC50 [3]: 0.02 µM | Ki (LXR β LBD protein): 0.007 µM | Ki (LXR α LBD protein [4]): 0.044 µM

CC(C)[C@H]1CN(c2cccc(S(C)(=O)=O)c2)CCN1CC1CCCOC1 (stereo partly drawn) [Cpd No 51-1, (2S)-2-isopropyl-4-(3-(methylsulfonyl)phenyl)-1-((tetrahydro-2H-pyran-3-yl)methyl)piperazine]
Cell LXRα efficacy [2]: 7863 (36) % | EC50 [2]: 7.86 µM | Cell LXRβ efficacy [3]: 673 (32) % | EC50 [3]: 0.673 µM | Ki (LXR β LBD protein): 1.53 µM | Ki (LXR α LBD protein [4]): > 3.33 µM

CC(C)[C@H]1CN(c2cccc(S(C)(=O)=O)c2)CCN1CC1CCC(C(F)(F)F)N(C)C1 (stereo partly drawn) [Cpd No 52-1, (2S)-2-isopropyl-1-((1-methyl-6-(trifluoromethyl)piperidin-3-yl)methyl)-4-(3-(methylsulfonyl)phenyl)piperazine]
Cell LXRα efficacy [2]: 137 (95) % | EC50 [2]: 0.137 µM | EC50 [3]: 0.046 µM | Cell LXRβ efficacy [3, 6]: 46 (74) % | Ki (LXR β LBD protein; Biological Test Example 1): 0.019 µM | Ki (LXR α LBD protein [4]): 0.144 µM

Source: US10144715B2, “Piperazine derivatives as liver X receptor modulators” (priority 2014, dated 2018)
